In US10919841B2, “Monoamine reuptake inhibitors” (Research Triangle Institute, priority 2009, dated 2021):
Entries after “also recorded” stand apart in the source; their conditions may differ. Like-named read-outs stand apart in the source and are kept apart here.

What was measured:
[1] = target: serotonin transporter (Rattus norvegicus, UniProt P31652); assay: 5-HT releasing/substrate activity using rat brain synaptosomes
[2] = system: rats; assay: cocaine discrimination (2-lever operant), i.p. administration; conditions: for responders at 5 mg/kg / responders at 10 mg/kg / responders at 25 mg/kg / ED50 / responders at 50 mg/kg / responders at 100 mg/kg: Rattus norvegicus, ip; for responders at 5 mg/kg / responders at 10 mg/kg / responders at 25 mg/kg / responders at 50 mg/kg / responders at 100 mg/kg: read-out: % cocaine lever responding; for ED50: read-out: Full Generalization ED50
[3] = system: mice; assay: locomotor activity, 1-h observation protocol; format: in vivo; conditions: for Emax / ED50: Mus musculus; for Emax: 0.5 h, read-out: Locomotor Activity 1-Hour % Peak Cocaine; for ED50 / Locomotor Activity 1-Hour ED50: dose to produce 50% of the compound's maximal effect, 1-h
[4] = target: T1, (h)SERT (Homo sapiens, UniProt P31645); conditions: read-out: Binding, Ki SERT
T1 construct: expressed in transfected cells; host or cells: HEK293
T1 sequence (P31645 whole entry): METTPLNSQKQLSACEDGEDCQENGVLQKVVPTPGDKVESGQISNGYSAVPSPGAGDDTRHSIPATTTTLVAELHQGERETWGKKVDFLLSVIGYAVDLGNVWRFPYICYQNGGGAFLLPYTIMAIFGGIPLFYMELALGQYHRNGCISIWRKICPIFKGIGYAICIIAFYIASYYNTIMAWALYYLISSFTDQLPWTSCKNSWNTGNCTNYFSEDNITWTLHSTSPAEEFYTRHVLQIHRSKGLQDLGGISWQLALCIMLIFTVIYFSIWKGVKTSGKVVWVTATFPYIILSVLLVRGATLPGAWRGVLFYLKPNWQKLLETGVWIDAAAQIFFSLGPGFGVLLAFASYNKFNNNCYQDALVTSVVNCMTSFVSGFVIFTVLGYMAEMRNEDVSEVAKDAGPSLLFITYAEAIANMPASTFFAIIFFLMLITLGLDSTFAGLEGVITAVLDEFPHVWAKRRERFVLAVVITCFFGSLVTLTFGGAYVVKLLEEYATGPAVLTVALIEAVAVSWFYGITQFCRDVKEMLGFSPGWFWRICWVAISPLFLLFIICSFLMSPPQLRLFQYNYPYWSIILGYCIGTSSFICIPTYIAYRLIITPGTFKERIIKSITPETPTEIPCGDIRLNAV

[5] = target: T2, (h)DAT (Homo sapiens, UniProt Q01959); assay: block of [3H]dopamine reuptake in HEK-(h)DAT cells; format: cell-based; conditions: for times more potent than bupropion as DA uptake inhibitor: relative to bupropion
T2 construct: expressed in transfected cells
T2 sequence (Q01959 whole entry): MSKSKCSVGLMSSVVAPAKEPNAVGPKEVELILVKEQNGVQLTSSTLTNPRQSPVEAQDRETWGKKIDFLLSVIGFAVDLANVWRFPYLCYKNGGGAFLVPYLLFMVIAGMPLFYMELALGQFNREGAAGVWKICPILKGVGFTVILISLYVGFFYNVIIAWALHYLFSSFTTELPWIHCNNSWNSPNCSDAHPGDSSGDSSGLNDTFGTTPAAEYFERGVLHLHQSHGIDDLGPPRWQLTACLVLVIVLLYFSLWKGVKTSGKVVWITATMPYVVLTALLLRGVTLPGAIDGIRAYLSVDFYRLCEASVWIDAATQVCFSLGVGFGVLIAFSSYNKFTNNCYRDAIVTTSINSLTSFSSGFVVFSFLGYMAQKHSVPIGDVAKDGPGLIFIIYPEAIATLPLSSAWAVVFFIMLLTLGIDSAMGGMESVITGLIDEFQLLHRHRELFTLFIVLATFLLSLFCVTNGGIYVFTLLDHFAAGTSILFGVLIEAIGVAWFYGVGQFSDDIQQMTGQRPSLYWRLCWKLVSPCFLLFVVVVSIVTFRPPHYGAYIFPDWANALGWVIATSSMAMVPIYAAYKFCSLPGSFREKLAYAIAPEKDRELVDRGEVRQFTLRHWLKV

[6] = system: mice; assay: locomotor activity, 8-h time course protocol; format: in vivo; conditions: for locomotor stimulant activity across the 1-h and 8-h protocols, in words: 1-h and 8-h tests compared; for Emax / ED50: Mus musculus; for Emax: read-out: Locomotor Activity 8-Hour % Peak Cocaine, percent of cocaine's maximal effect, 30 min period of maximum stimulation; for ED50: read-out: Locomotor Activity 8-Hour ED50; for Locomotor Activity 8-Hour Time, min Period, length: duration of locomotor activity; for Locomotor Activity 8-Hour Time, min Period, max: time period of maximum effect; for onset and duration of locomotor activity, in words: mouse, in vivo; for Locomotor Activity 8-Hour % Peak Cocaine: percent of cocaine's maximal effect, 30 min period of maximum stimulation
[7] = target: T2, (h)DAT; assay: competition binding with [125I]RTI-55 at (h)DAT stably expressed in HEK293 cells; conditions: mean ± standard error of three independent experiments
[8] = target: T3, (h)NET (Homo sapiens, UniProt P23975); assay: competition binding with [125I]RTI-55 at (h)NET stably expressed in HEK293 cells; conditions: read-out: Binding, Ki NET; mean ± standard error of three independent experiments
T3 sequence (P23975 whole entry): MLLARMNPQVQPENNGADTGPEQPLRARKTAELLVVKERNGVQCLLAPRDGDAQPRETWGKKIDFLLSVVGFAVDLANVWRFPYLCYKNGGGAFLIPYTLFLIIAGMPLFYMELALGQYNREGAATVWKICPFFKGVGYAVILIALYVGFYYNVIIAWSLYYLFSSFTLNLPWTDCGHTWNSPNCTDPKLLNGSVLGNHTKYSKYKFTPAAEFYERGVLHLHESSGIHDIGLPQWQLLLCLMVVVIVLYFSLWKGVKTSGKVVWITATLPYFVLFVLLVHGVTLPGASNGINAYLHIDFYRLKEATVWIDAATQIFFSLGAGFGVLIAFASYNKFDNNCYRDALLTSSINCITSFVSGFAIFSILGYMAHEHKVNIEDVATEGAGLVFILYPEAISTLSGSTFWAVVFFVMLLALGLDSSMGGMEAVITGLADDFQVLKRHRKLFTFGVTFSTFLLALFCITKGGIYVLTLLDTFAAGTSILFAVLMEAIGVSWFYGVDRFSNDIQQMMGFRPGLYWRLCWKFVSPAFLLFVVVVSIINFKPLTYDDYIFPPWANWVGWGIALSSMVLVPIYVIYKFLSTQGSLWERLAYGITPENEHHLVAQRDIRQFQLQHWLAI

[9] = target: T3, (h)NET; assay: block of [3H]norepinephrine reuptake in HEK-(h)NET cells; conditions: for times better as NE uptake inhibitors than bupropion: relative to bupropion
[10] = target: T1, (h)SERT; assay: block of [3H]serotonin reuptake in HEK-(h)SERT cells; format: cell-based
[11] = system: rats; assay: cocaine discrimination time-course study, oral administration; conditions: Rattus norvegicus, po, 0.75 h
[12] = mean ± standard error of three independent experiments
[13] = mean ± standard error of three independent experiments, read-out: Uptake, IC50 [3H]DA
[14] = dose to produce 50% of the compound's maximal effect, 8-h
[15] = read-out: IC50 for NE uptake inhibition, [3H]NE
[16] = read-out: Uptake, IC50 [3H]5-HT
[17] = [3H]DA, read-out: IC50 for DA uptake inhibition
[18] = read-out: Uptake, IC50 [3H]NE, mean ± standard error of three independent experiments
[19] = [3H]5HT, read-out: IC50 for 5HT uptake inhibition
[20] = bound given in μM, read-out: Uptake, IC50 [3H]5-HT

Sequence of serotonin transporter (P31652 whole entry): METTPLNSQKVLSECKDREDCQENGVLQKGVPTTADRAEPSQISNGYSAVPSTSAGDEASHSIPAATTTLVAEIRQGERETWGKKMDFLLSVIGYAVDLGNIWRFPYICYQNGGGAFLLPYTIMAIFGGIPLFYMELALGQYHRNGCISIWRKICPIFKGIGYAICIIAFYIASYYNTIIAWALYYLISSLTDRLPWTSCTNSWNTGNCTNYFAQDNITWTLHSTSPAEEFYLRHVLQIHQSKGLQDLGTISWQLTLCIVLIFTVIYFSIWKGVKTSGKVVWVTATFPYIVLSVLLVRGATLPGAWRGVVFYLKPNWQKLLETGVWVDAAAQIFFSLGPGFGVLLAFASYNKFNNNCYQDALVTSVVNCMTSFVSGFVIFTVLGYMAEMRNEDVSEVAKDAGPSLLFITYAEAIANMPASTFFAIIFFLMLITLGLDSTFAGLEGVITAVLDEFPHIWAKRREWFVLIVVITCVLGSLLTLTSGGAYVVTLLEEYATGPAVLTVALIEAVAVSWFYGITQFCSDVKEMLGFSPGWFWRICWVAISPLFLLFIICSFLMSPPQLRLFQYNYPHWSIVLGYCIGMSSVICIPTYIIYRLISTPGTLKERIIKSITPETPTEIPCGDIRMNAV

SMILES	EC50 [1]	responders at 10 mg/kg [2]	responders at 25 mg/kg [2]	locomotor stimulant activity across the 1-h and 8-h protocols, in words [6]	Emax [6]	ED50 [6, 14]	Locomotor Activity 8-Hour Time, min Period, length [6]	Locomotor Activity 8-Hour Time, min Period, max [6]	Ki [7]	Ki [8]	Locomotor Activity 1-Hour ED50 [3]	IC50 [5, 17]	IC50 [9, 18]	further results
CC(NC1CC1)C(=O)c1cccc(Br)c1 (stereo not drawn)	383 ± 56 nM													
Cc1cccc(C(=O)C(C)NC2CC2)c1 (stereo not drawn)	890 ± 63 nM													
COc1cccc(C(=O)C(C)NC2CC2)c1 (stereo not drawn)	676 ± 197 nM													
CC(NC1CC1)C(=O)c1ccc(Cl)cc1 (stereo not drawn)	2700 ± 314 nM													
Cc1ccc(C(=O)C(C)NC2CC2)cc1 (stereo not drawn)	707 ± 69 nM													
CC(NC1CC1)C(=O)c1ccc(Cl)c(Cl)c1 (stereo not drawn)	148 ± 35 nM													
Cc1ccc(C(=O)C(C)NC2CC2)cc1Cl (stereo not drawn)	139 ± 30 nM													
CCC(NC(C)(C)C)C(=O)c1ccc(Cl)c(Cl)c1 (stereo not drawn) [Compound 2aa, 2-(tert-Butylamino)-3′,4′-dichlorobutyrophenone]		10%	10%	weak stimulants in both tests; also recorded: moderate activity in the 1-h test with increased activity in the time-course study	84%	42.2 mg/kg	60 min	0 to 30 min	278 nM	2240 nM				responders at 5 mg/kg [2]: 1%; ED50 [2]: 15 mg/kg; Emax [3]: 41%; ED50 [3]: 50.3 mg/kg; Ki [4, 12]: 860 nM; DA uptake inhibition, in words [5]: slightly lower IC50 values than 2j; IC50 [5, 13]: 0.175 µM; IC50 [9, 15]: 0.135 µM; times better as NE uptake inhibitors than bupropion [9]: 10 times; IC50 ([10]; mean ± standard error of three independent experiments, read-out: Uptake, IC50 [3H]5-HT): 0.79 µM
CCCC(NC(C)(C)C)C(=O)c1ccc(Cl)c(Cl)c1 (stereo not drawn) [Compound 2bb, 2-(tert-Butylamino)-3′,4′-dichloropentanophenone]		17%	10%	moderate activity in the 1-h test with increased activity in the time-course study	100%	35 mg/kg	470 min	0 to 30 min	43.7 nM	520 nM				responders at 5 mg/kg [2]: 1%; ED50 [2]: 6.95 mg/kg; Emax [3]: 49%; ED50 [3]: 18.1 mg/kg; Ki [4]: 842 nM; DA uptake inhibition, in words [5]: slightly lower IC50 values than 2j; IC50 [5, 13]: 0.084 µM; ED50 [11]: 17.3 mg/kg; IC50 [9, 15]: 0.043 µM; times better as NE uptake inhibitors than bupropion [9]: 34 times; IC50 [10, 16]: 1.58 µM
CC(C(=O)c1cccc(Cl)c1)N1CCCCC1 (stereo not drawn) [Compound 2ff, 2-Piperidino-3′-chloropropiophenone]		6%	17%	inactive in the 1-h test but showed weak stimulant activity in the 8-h protocol	45%	15 mg/kg	470 min		1150 nM	4760 nM	NE^f	1.03 µM	4.8 µM	responders at 50 mg/kg [2]: 33%; responders at 100 mg/kg [2]: 34%; Ki [4]: 5480 nM; onset and duration of locomotor activity, in words [6]: very slow onset of stimulatory activity; IC50 [10, 16]: 0.97 µM
CC(NC(C)(C)C)C(=O)c1ccc(Br)cc1 (stereo not drawn) [Compound 2g, 2-(N-tert-Butylamino)-4′-bromopropiophenone]		1%	17%	inactive in the 1-h test but showed weak stimulant activity in the 8-h protocol	54%	32 mg/kg	160 min	140 to 170 min	1920 nM		NE^f			responders at 50 mg/kg [2]: 17%; responders at 100 mg/kg [2]: 0%; Ki [4]: 4170 nM; IC50 [5, 13]: 1.29 µM; IC50 [10, 16]: 2.52 µM
CC(NC(C)(C)C)C(=O)c1ccc(Cl)c(Cl)c1 (stereo not drawn) [Compound 2j, 2-(N-tert-Butylamino)-3′,4′-dichloropropiophenone]		0%	17%		61%	39.1 mg/kg	140 to 240 min		472 nM	5400 nM	NE^f	0.271 µM	2.1 µM	responders at 50 mg/kg [2]: 34%; responders at 100 mg/kg [2]: 2%; generalization to the cocaine cue, in words ([2]; i.p.): did not even show partial generalization; Ki [4]: 1480 nM; times more potent than bupropion as DA uptake inhibitor [5]: 3.5 times; onset and duration of locomotor activity, in words [6]: very slow onset of stimulatory activity
Cc1ccc(C(=O)C(C)NC(C)(C)C)cc1Cl (stereo not drawn) [Compound 2k, 2-(N-tert-Butylamino)-3′-chloro-4′-methylpropiophenone]				moderate activity in the 1-h test with increased activity in the time-course study	87%		60 min	10 to 40 min	1150 nM	5100 nM		0.65 µM	0.9 µM	Emax [3]: 74%; ED50 [3]: 31.9 mg/kg; Ki [4, 12]: 2100 nM; times more potent than bupropion as DA uptake inhibitor [5]: 2 times; ED50 ([6]; 8 h): 60.8 mg/kg; IC50 [10, 19]: 0.4 µM
Cc1cc(C(=O)C(C)NC(C)(C)C)ccc1Br (stereo not drawn) [Compound 2l, 2-(N-tert-Butylamino)-4′-bromo-5′-methylpropiophenone]		0%	0%		46%	12.8 mg/kg	240 min	50 to 80 min		4600 nM	NE^f		1.62 µM	responders at 50 mg/kg [2]: 17%; responders at 100 mg/kg [2]: 67%; Ki [4]: 1220 nM; IC50 ([10]; read-out: IC50 for 5HT uptake inhibition): 0.473 µM
CC(C)CC(NC(C)(C)C)C(=O)c1cccc(Cl)c1 (stereo not drawn) [Compound 2t, 2-(N-tert-Butylamino)-3′-chlorophenyl-4-methylpentanophenone]				weak stimulants in both tests			320 min	260 to 290 min	140 nM	2300 nM	47.7 mg/kg	0.44 µM	0.36 µM	Locomotor Activity 1-Hour % Peak Cocaine ([3]; maximal effect as percent of cocaine's maximal effect in the first 30 min): 62%; Ki [4, 12]: 6200 nM; Locomotor Activity 8-Hour ED50 [6, 14]: 22.1 mg/kg; onset and duration of locomotor activity, in words [6]: very slow onset of stimulatory activity; Locomotor Activity 8-Hour % Peak Cocaine [6]: 35%; IC50 [10, 20]: > 10 µM
CC(C)(C)NC(CCC1CCCCC1)C(=O)c1cccc(Cl)c1 (stereo not drawn) [Compound 2u, 2-(N-tert-Butylamino)-3′-chlorophenyl-4-cyclohexylbutanophenone]				inactive in the 1-h test but showed weak stimulant activity in the 8-h protocol			60 to 160 min	60 to 90 min	1700 nM	3800 nM	NE^f	> 10 µM		% cocaine lever responding ([2]; rats, IP, dose 5 mg/kg): 0%; % cocaine lever responding ([2]; rats, IP, dose 10 mg/kg): 0%; % cocaine lever responding ([2]; rats, IP, dose 25 mg/kg): 70%; Comments (response rate) ([2]; rats, IP, response rate relative to vehicle control): B^b; Ki [4, 12]: 6200 nM; IC50 ([5]; bound given in μM, read-out: Uptake, IC50 [3H]DA): > 10 µM; Locomotor Activity 8-Hour ED50 [6, 14]: 15.3 mg/kg; Locomotor Activity 8-Hour % Peak Cocaine [6]: 47%; IC50 ([9]; read-out: Uptake, IC50 [3H]NE, bound given in μM): > 10 µM; IC50 [10, 20]: > 10 µM
CC(NC1CCC1)C(=O)c1cccc(Cl)c1 (stereo not drawn) [Compound 2y, 2-(N-Cyclobutylamino)-3′-chloropropiophenone]									343 nM	1800 nM		0.258 µM	0.086 µM	Ki [4, 12]: 3450 nM; times more potent than bupropion as DA uptake inhibitor [5]: 3.7 times; IC50 [9, 15]: 0.086 µM; times better as NE uptake inhibitors than bupropion [9]: 17 times; IC50 [10, 19]: 0.185 µM
